Experimental data: US10315990B2, “Isothiocyanate compounds and isothiocyanate XPO1 protein inhibitor drugs thereof” (DRIVINGFORCE THERAPEUTICS Co., Ltd., priority 2015, dated 2019)
Where two headings read alike, the source gives them in different places.

Legend:
IBD animal model = experiment: Macroscopic pathological changes of IBD animal model (enteroclysis with TNBS); type: in vivo, SD rats; details: 80 mg/kg intragastrically daily, TNBS rats, score 0-5, 10 animals
Procedure: Eight-week-old male SD rats (10 rats per group) were fasted for 24 hours and anaesthetized with diethyl ether. 50% ethanol and TNBS (2,4,6-trinitrobenzenesulfonic acid) were mixed to prepare a solution. In the IBD model group, a tube made of vinyl resin was inserted 5 cm from anus, and enteroclysis was performed with the TNBS solution in a dose of 100 mg/kg. The rats were hung upside down 30 seconds later after the enteroclysis to ensure no leakage of the TNBS solution. In the control group, the TNBS solution was replaced with normal saline with which enteroclysis was performed. Seven days later after the enteroclysis with the TNBS solution or normal saline, animals were sacrificed and dissected. […] Two weeks later after treated with the drugs, the animals were sacrificed and dissected, and large intestine thereof was taken out and fixed in 4% formalin solution for 30 minutes. The large intestine of the animals was cut lengthwise from the mesentery side to take photos for rectum portion and measure the weight of rectum. Based on the macroscopic observation and judgment score (Table 2-1), ulceration and bleeding states of rectum portion were scored according to the macroscopic observation scoring standard.

NCI-H1650 = experiment: cells; type: cell-based; details: Homo sapiens
Procedure: (§1) NCI-H1975 and NCI-H1650 are two typical high metastasis type lung cancer cell lines. The therapeutic effect of the representative compound for the metastasis type lung cancers can be preliminarily assessed by detecting the inhibitory activity of the representative compound for the two cell lines. The lung cancer cell line was inoculated on 96-well cell culture plate in an amount of 6000 cells per well and cultured at 37° C. for 24 hours, and then treated solely with the compound added therein and cultured. Seventy-two hours later, MTT or CCK-8 method was used to detect the inhibitory activity of the compound for the two lung cancer cell lines.

NCI-H1975 = experiment: cells; type: cell-based; details: Homo sapiens
Procedure: as §1

TNF-α = experiment: Serum TNF-α level of IBD animal model (ELISA); type: in vivo, SD rats; details: 80 mg/kg, three days after making the TNBS model
From the text: (§2) Inflammatory bowel disease is an autoimmune disease. […] The therapeutic effect of the representative compound for the immune system disease or inflammation can be assessed by detecting change in levels of some important cytokines such as TNF-α and IL-6 at downstream of the signal path.

SW620 = experiment: Inhibitory activity for high metastasis type colon cancer cell line (MTT or CCK-8); type: cell-based; details: Homo sapiens
Procedure: (§3) SW620 and HCT116 are two typical high metastasis type colon cancer cell lines. The colon cancer cell line was inoculated on 96-well cell culture plate in an amount of 6000 cells per well and cultured at 37° C. for 24 hours, and then treated solely with the compound added therein and cultured. Seventy-two hours later, MTT or CCK-8 method was used to detect the inhibitory activity of the compound for the two high metastasis type colon cancer cell lines.

HCT116 = experiment: as above; type: cell-based; details: Homo sapiens
Procedure: as §3

HMLE-Snail cell line = experiment: Formation of HMLE-Snail cell line spheroids; type: cell-based; details: read-out: Colony (%): cell colony number of drug-treated group/cell colony number of control group × 100%
Procedure: HMLE-Snail cell line is one of most classic cell models for studying tumor cell metastasis and EMT path. HMLE-Snail cell line highly expresses Snail protein, and thus one of most remarkable features thereof is that it has spherical cellular morphology (spheroid). […] The HMLE-Snail cell line used in the present invention was donated by Dr. Robert Weinberg from America Massachusetts Whitehead Institute. HMLE-Snail cells were suspended in a liquid culture medium (in which B-27 and N-2 were added, purchased from America Invitrogen Corporation) containing DMEM/F12 in a ratio of 1:1, in an amount of 1.0×10^3 cells/ml, and cultured in an ultra low attachment culture plate so as to allow spheroids to be formed. Seven days later, spheroids were collected by centrifugation, and counted. […] Docetaxel is a common clinical chemotherapy drug.

U2932 = experiment: Inhibitory activity for high metastasis type lymphoma cell line (MTT or CCK-8); type: cell-based; details: Homo sapiens
Procedure: (§4) Jeko-1, Raji and U2932 are three typical high metastasis type lymphoma cell lines. The lymphoma cell line was inoculated on 96-well cell culture plate in an amount of 6000 cells per well and cultured at 37° C. for 24 hours, and then treated solely with the compound added therein and cultured. Seventy-two hours later, MTT or CCK-8 method was used to detect the inhibitory activity of the compound for the two high metastasis type lymphoma cell lines.

Raji = experiment: as above; type: cell-based; details: Homo sapiens
Procedure: as §4

Jeko-1 = experiment: as above; type: cell-based; details: Homo sapiens
Procedure: as §4

XPO1 protein = molecular target: T1, XPO1 protein (Homo sapiens, UniProt O14980); experiment: Inhibitory activity for XPO1 protein (NES-GFP nuclear export, laser confocal microscope); type: cell-based; details: NES-GFP nuclear export, cells treated for 2 hours
T1 construct: Sixteen hours later, NES-GFP plasmid was transfected with liposome; endogenous in cells
T1 sequence (O14980 whole entry, species assumed): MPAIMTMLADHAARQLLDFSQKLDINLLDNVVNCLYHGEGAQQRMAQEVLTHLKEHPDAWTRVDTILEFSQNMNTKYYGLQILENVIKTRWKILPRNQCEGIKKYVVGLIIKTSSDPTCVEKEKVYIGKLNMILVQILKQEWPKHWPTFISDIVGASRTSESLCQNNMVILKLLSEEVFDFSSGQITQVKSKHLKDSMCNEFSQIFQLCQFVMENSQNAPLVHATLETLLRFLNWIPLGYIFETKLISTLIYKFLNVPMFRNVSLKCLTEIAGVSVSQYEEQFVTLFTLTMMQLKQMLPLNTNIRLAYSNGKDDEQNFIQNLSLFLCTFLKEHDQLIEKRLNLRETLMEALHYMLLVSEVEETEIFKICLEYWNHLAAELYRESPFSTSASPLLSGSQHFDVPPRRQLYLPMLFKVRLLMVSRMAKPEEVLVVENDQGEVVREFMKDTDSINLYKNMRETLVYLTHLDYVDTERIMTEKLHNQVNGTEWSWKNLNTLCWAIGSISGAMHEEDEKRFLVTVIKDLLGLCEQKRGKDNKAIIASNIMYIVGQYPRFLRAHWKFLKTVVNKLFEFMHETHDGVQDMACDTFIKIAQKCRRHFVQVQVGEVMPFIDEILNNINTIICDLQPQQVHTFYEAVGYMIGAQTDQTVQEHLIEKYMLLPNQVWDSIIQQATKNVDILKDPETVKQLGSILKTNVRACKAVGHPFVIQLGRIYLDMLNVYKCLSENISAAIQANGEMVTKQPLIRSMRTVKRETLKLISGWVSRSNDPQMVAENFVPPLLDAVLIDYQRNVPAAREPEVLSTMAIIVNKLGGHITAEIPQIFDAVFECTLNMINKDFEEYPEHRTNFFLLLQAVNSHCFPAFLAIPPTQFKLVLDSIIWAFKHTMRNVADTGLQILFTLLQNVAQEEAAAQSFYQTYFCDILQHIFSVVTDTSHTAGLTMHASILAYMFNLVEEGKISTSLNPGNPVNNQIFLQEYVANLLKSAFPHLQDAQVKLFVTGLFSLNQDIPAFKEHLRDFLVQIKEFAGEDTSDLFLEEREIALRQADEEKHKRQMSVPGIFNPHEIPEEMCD
From the text: NES (nuclear export signal) is a nuclear export signal peptide recognized by XPO1 protein. XPO1 recognizes NES sequence peptide segment of biomacromolecule and exports the biomacromolecule out of nucleus. NES-GFP protein is obtained by co-expressing green fluorescence protein GFP and NES sequence peptide segment by using a eukaryotic expression plasmid. Inhibitory activity of the representative compound for XPO1 protein can be assessed by detecting influence of the compound on NES-GFP cell localization.
The cells were digested with trypsin, counted, and inoculated on 96-well plate in an amount of 1.5×10^4 cells per well. Sixteen hours later, NES-GFP plasmid was transfected with liposome.

IL-6 = experiment: Serum IL-6 level of IBD animal model (ELISA); type: in vivo, SD rats; details: 80 mg/kg, three days after making the TNBS model
From the text: as §2

[1] = tested on: SK-OV3 (high metastasis type ovarian cancer cell line); experiment: Ovarian cancer intraperitoneal metastasis animal model; type: in vivo, nudemice (BALB/c-nu/nu); details: Mus musculus, SK-OV-3, ip; for response vs control in vivo at 80 mg/kg: 504 h, read-out: T/C (%); for mortality at 80 mg/kg: 720 h, six mice per group, read-out: Mortality (within 30 days) (converted)
Procedure: The ovarian cancer intraperitoneal metastasis animal model is one of most classic animal models for studying anti-ovarian cancer metastasis drug. Sixty 5 to 6-week-old female nudemice with similar weight (BALB/c-nu/nu) were chosen. SK-OV3 (high metastasis type ovarian cancer cell line) stably expressing green fluorescence protein was screened, and prepared into a cell suspension of 2×10^6 cells/100 μl with serum-free PRMI1640 medium. […] Three weeks later, the cancer was detected with a small animal in vivo imaging apparatus (Xenogen, School of Medicine, Shanghai Jiaotong University) and photos thereof were taken. […] In the table, T represents the drug-treated group, and C represents the blank control group. T/C is (V/V0 of compound-treated group)/(V/V0 of blank control group) in which V represents the cancer volume of mouse on the day the detection was performed, and V0 represents the cancer volume of mouse on the day the administration begun.

[2] = NCI-H1650, 72 hours, read-out: IC50
[3] = NCI-H1975, 72 hours, read-out: IC50
[4] = SW-620, SW620, 72 hours, read-out: IC50
[5] = HCT-116, HCT116, 72 hours, read-out: IC50
[6] = 10 μg/ml, treated for 24 hours, control = 100
[7] = U2932, 72 hours, read-out: IC50
[8] = Jeko-1, 72 hours, read-out: IC50
[9] = 80 mg/kg intraperitoneal injection once a day for 3 weeks

Structure (SMILES)	Macroscopic pathological score (IBD animal model)	IC50 (NCI-H1650; [2])	IC50 (NCI-H1975; [3])	Serum TNF-α level, Animal-1 (TNF-α)	Serum TNF-α level, Animal-2 (TNF-α)	Serum TNF-α level, Animal-3 (TNF-α)	IC50 (SW620; [4])	IC50 (HCT116; [5])	activity at 10 µg/mL (HMLE-Snail cell line; [6])	IC50 (U2932; [7])	IC50 (Raji; 72 hours, read-out: IC50)	IC50 (Jeko-1; [8])	Activity (μM): inhibitory activity for XPO1 protein (full inhibitory concentration) (XPO1 protein)	Serum IL-6 level, Animal-1 (IL-6)	Serum IL-6 level, Animal-2 (IL-6)	Serum IL-6 level, Animal-3 (IL-6)	response vs control in vivo at 80 mg/kg [1, 9]	mortality at 80 mg/kg [1]	other results
CS/C=C/CCN=C=S [Compound F-06, reference compound]	3.5 ± 0.2	16300 nM	17200 nM	2.3 ng/mL	2.0 ng/mL	2.2 ng/mL	17800 nM	15600 nM	70 to 75%	14700 nM	13500 nM	12000 nM	15 to 20 µM	2.8 ng/mL	2.5 ng/mL	2.3 ng/mL	80%	16.7%	–
N#Cc1cc([S+]([O-])/C=C/CCN=C=S)cc(C(F)(F)F)c1 (centres unmarked) [Compound I-08]	–	200 nM	170 nM	1.0 ng/mL	1.2 ng/mL	1.1 ng/mL	–	–	15 to 20%	–	–	–	0.5 to 1 µM	0.8 ng/mL	0.7 ng/mL	0.8 ng/mL	23%	0%	–
COc1ccc(Sc2ccc([S+]([O-])/C=C/CCN=C=S)cc2)cc1 (centres unmarked) [Compound I-28]	–	–	–	–	–	–	190 nM	150 nM	15 to 20%	–	–	–	0.5 to 1 µM	–	–	–	–	–	–
COc1cc([S+]([O-])/C=C/CCN=C=S)cc(OC)c1OC (centres unmarked) [Compound I-06]	1.0 ± 0.1	–	–	0.9 ng/mL	0.6 ng/mL	0.5 ng/mL	150 nM	100 nM	10 to 15%	170 nM	100 nM	70 nM	0.200 µM	0.7 ng/mL	0.5 ng/mL	0.3 ng/mL	–	–	–
[O-][S+](/C=C/CCN=C=S)c1cc(C(F)(F)F)cc(C(F)(F)F)c1 (centres unmarked) [Compound I-04]	1.0 ± 0.5	–	–	–	–	–	–	–	–	–	–	–	0.250 µM	–	–	–	–	0%	IC50 (NCI-H1650; NCI-H1650, 72 h): 80 nM; IC50 (NCI-H1975; NCI-H1975, 72 h): 90 nM; IC50 (SW620; SW-620, 72 h): 90 nM; IC50 (HCT116; HCT-116, 72 h): 70 nM; activity at 10 µg/mL (HMLE-Snail cell line; 24 h): 10 to 15%; IC50 (U2932; U2932, 72 h): 90 nM; IC50 (Raji; 72 h): 60 nM; IC50 (Jeko-1; JeKo-1, 72 h): 50 nM; response vs control in vivo at 80 mg/kg [1]: 19%
CCC[S+]([O-])/C=C/CCN=C=S (centres unmarked) [Compound F-01, reference compound]	–	5400 nM	6900 nM	2.0 ng/mL	1.7 ng/mL	1.9 ng/mL	4100 nM	3500 nM	60 to 65%	5200 nM	3700 nM	3500 nM	10 to 15 µM	1.8 ng/mL	1.9 ng/mL	2.0 ng/mL	37%	0%	–
